Source: ChEMBL document CHEMBL3885881, “DrugMatrix”

Species: Rattus norvegicus
Experiment: DrugMatrix - Regimen: Daily Repeat
Format: toxicity, organism-based, Sprague-Dawley
Parameters: regimen Daily Repeat, gender Male, age 6-8 weeks
Details: in vivo, po, route oral GAVAGE, vehicle .5 % CMC; for ABSOLUTE BASOPHIL / ABSOLUTE EOSINOPHIL / ABSOLUTE LYMPHOCYTE / ABSOLUTE MONOCYTE / ABSOLUTE SEGMENTED NEUTROPHIL / BASOPHIL / EOSINOPHIL / ERYTHROCYTE COUNT / HEMATOCRIT / HEMOGLOBIN / LEUKOCYTE COUNT / LYMPHOCYTE / MEAN CORPUSCULAR HEMOGLOBIN / MEAN CORPUSCULAR HEMOGLOBIN CONCENTRATION / MEAN CORPUSCULAR VOLUME / MONOCYTE / NEUTROPHIL / NUCLEATED RED BLOOD CELLS / PLATELET COUNT: tissue Blood; for ALANINE AMINOTRANSFERASE / ALBUMIN / ALKALINE PHOSPHATASE / ASPARTATE AMINOTRANSFERASE / BLOOD UREA NITROGEN / CARBON DIOXIDE / CHLORIDE / CHOLESTEROL / CREATINE PHOSPHOKINASE / CREATININE / GLUCOSE / LACTATE DEHYDROGENASE / LIPASE / PHOSPHORUS / POTASSIUM / SODIUM / TOTAL BILIRUBIN / TOTAL PROTEIN / URIC ACID: tissue Plasma
[1] = 15 mg/kg, 72 h, dose level Low, time 3 day
[2] = 15 mg/kg, 120 h, dose level Low, time 5 day
[3] = 2000 mg/kg, 72 h, dose level High, time 3 day
[4] = 2000 mg/kg, 120 h, dose level High, time 5 day

C[C@]12CCC(=O)C=C1CC[C@@H]1[C@@H]2CC[C@@]2(C)[C@H]1CC[C@]2(C)O [METHYLTESTOSTERONE]
ABSOLUTE BASOPHIL [1]: 0 CELLS/uL | ABSOLUTE EOSINOPHIL [1]: 240 CELLS/uL | ABSOLUTE LYMPHOCYTE [1]: 14115 CELLS/uL | ABSOLUTE MONOCYTE [1]: 60.67 CELLS/uL | ABSOLUTE SEGMENTED NEUTROPHIL [1]: 1817.67 CELLS/uL | BASOPHIL [1]: 0% | EOSINOPHIL [1]: 1.33% | ERYTHROCYTE COUNT [1]: 5.48 x10E6/uL | HEMATOCRIT [1]: 33.23% | HEMOGLOBIN [1]: 12.9 G/DL | LEUKOCYTE COUNT [1]: 16.23 x10E3/uL | LYMPHOCYTE [1]: 87% | MEAN CORPUSCULAR HEMOGLOBIN [1]: 23.53 pg | MEAN CORPUSCULAR HEMOGLOBIN CONCENTRATION [1]: 38.8 G/DL | MEAN CORPUSCULAR VOLUME [1]: 60.73 fL | MONOCYTE [1]: 0.33% | NEUTROPHIL [1]: 11.33% | NUCLEATED RED BLOOD CELLS [1]: 0 /100WBC | PLATELET COUNT [1]: 1314.67 x10E3/uL | ALANINE AMINOTRANSFERASE [1]: 47.33 u/L | ALBUMIN [1]: 4.2 G/DL | ALKALINE PHOSPHATASE [1]: 275.33 u/L | ASPARTATE AMINOTRANSFERASE [1]: 99.33 u/L | BLOOD UREA NITROGEN [1]: 18.67 mg/dL | CARBON DIOXIDE [1]: 27 mmol/L | CHLORIDE [1]: 103 MEQ/L | CHOLESTEROL [1]: 75 mg/dL | CREATINE PHOSPHOKINASE [1]: 593 u/L | CREATININE [1]: 0.23 mg/dL | GLUCOSE [1]: 141 mg/dL | LACTATE DEHYDROGENASE [1]: 578.33 u/L | LIPASE [1]: 9 u/L | PHOSPHORUS [1]: 11.9 mg/dL | POTASSIUM [1]: 5.93 MEQ/L | SODIUM [1]: 145.33 MEQ/L | TOTAL BILIRUBIN [1]: 0.2 mg/dL | TOTAL PROTEIN [1]: 5.8 G/DL | URIC ACID [1]: 1.47 mg/dL | ABSOLUTE BASOPHIL [2]: 0 CELLS/uL | ABSOLUTE EOSINOPHIL [2]: 157.67 CELLS/uL | ABSOLUTE LYMPHOCYTE [2]: 14288.33 CELLS/uL | ABSOLUTE MONOCYTE [2]: 45 CELLS/uL | ABSOLUTE SEGMENTED NEUTROPHIL [2]: 1275.67 CELLS/uL | BASOPHIL [2]: 0% | EOSINOPHIL [2]: 1% | ERYTHROCYTE COUNT [2]: 5.89 x10E6/uL | HEMATOCRIT [2]: 35.43% | HEMOGLOBIN [2]: 13.6 G/DL | LEUKOCYTE COUNT [2]: 15.77 x10E3/uL | LYMPHOCYTE [2]: 90.33% | MEAN CORPUSCULAR HEMOGLOBIN [2]: 23.1 pg | MEAN CORPUSCULAR HEMOGLOBIN CONCENTRATION [2]: 38.4 G/DL | MEAN CORPUSCULAR VOLUME [2]: 60.17 fL | MONOCYTE [2]: 0.33% | NEUTROPHIL [2]: 8.33% | NUCLEATED RED BLOOD CELLS [2]: 0 /100WBC | PLATELET COUNT [2]: 1359 x10E3/uL | ALANINE AMINOTRANSFERASE [2]: 52.33 u/L | ALBUMIN [2]: 4.13 G/DL | ALKALINE PHOSPHATASE [2]: 322.67 u/L | ASPARTATE AMINOTRANSFERASE [2]: 91 u/L | BLOOD UREA NITROGEN [2]: 13.67 mg/dL | CARBON DIOXIDE [2]: 26.67 mmol/L | CHLORIDE [2]: 103 MEQ/L | CHOLESTEROL [2]: 77.33 mg/dL | CREATINE PHOSPHOKINASE [2]: 245 u/L | CREATININE [2]: 0.17 mg/dL | GLUCOSE [2]: 149.33 mg/dL | LACTATE DEHYDROGENASE [2]: 232.33 u/L | LIPASE [2]: 9.33 u/L | PHOSPHORUS [2]: 12.6 mg/dL | POTASSIUM [2]: 6.3 MEQ/L | SODIUM [2]: 143.83 MEQ/L | TOTAL BILIRUBIN [2]: 0.17 mg/dL | TOTAL PROTEIN [2]: 5.87 G/DL | URIC ACID [2]: 1.73 mg/dL | ABSOLUTE BASOPHIL [3]: 0 CELLS/uL | ABSOLUTE EOSINOPHIL [3]: 184 CELLS/uL | ABSOLUTE LYMPHOCYTE [3]: 15708.67 CELLS/uL | ABSOLUTE MONOCYTE [3]: 378.67 CELLS/uL | ABSOLUTE SEGMENTED NEUTROPHIL [3]: 2662 CELLS/uL | BASOPHIL [3]: 0% | EOSINOPHIL [3]: 1% | ERYTHROCYTE COUNT [3]: 6.47 x10E6/uL | HEMATOCRIT [3]: 38.33% | HEMOGLOBIN [3]: 14.53 G/DL | LEUKOCYTE COUNT [3]: 18.93 x10E3/uL | LYMPHOCYTE [3]: 83% | MEAN CORPUSCULAR HEMOGLOBIN [3]: 22.53 pg | MEAN CORPUSCULAR HEMOGLOBIN CONCENTRATION [3]: 37.97 G/DL | MEAN CORPUSCULAR VOLUME [3]: 59.27 fL | MONOCYTE [3]: 2% | NEUTROPHIL [3]: 14% | NUCLEATED RED BLOOD CELLS [3]: 0 /100WBC | PLATELET COUNT [3]: 1292 x10E3/uL | ALANINE AMINOTRANSFERASE [3]: 50.33 u/L | ALBUMIN [3]: 3.93 G/DL | ALKALINE PHOSPHATASE [3]: 352.33 u/L | ASPARTATE AMINOTRANSFERASE [3]: 71.67 u/L | BLOOD UREA NITROGEN [3]: 13 mg/dL | CARBON DIOXIDE [3]: 27.67 mmol/L | CHLORIDE [3]: 101.33 MEQ/L | CHOLESTEROL [3]: 14.67 mg/dL | CREATINE PHOSPHOKINASE [3]: 215 u/L | CREATININE [3]: 0.25 mg/dL | GLUCOSE [3]: 123.33 mg/dL | LACTATE DEHYDROGENASE [3]: 352 u/L | LIPASE [3]: 7.33 u/L | PHOSPHORUS [3]: 10.83 mg/dL | POTASSIUM [3]: 6.24 MEQ/L | SODIUM [3]: 142.83 MEQ/L | TOTAL BILIRUBIN [3]: 0.5 mg/dL | TOTAL PROTEIN [3]: 5.53 G/DL | URIC ACID [3]: 1.17 mg/dL | ABSOLUTE BASOPHIL [4]: 0 CELLS/uL | ABSOLUTE EOSINOPHIL [4]: 0 CELLS/uL | ABSOLUTE LYMPHOCYTE [4]: 14176.33 CELLS/uL | ABSOLUTE MONOCYTE [4]: 40.33 CELLS/uL | ABSOLUTE SEGMENTED NEUTROPHIL [4]: 2783.33 CELLS/uL | BASOPHIL [4]: 0% | EOSINOPHIL [4]: 0% | ERYTHROCYTE COUNT [4]: 6.11 x10E6/uL | HEMATOCRIT [4]: 36.23% | HEMOGLOBIN [4]: 13.97 G/DL | LEUKOCYTE COUNT [4]: 17 x10E3/uL | LYMPHOCYTE [4]: 83% | MEAN CORPUSCULAR HEMOGLOBIN [4]: 22.9 pg | MEAN CORPUSCULAR HEMOGLOBIN CONCENTRATION [4]: 38.53 G/DL | MEAN CORPUSCULAR VOLUME [4]: 59.37 fL | MONOCYTE [4]: 0.33% | NEUTROPHIL [4]: 16.67% | NUCLEATED RED BLOOD CELLS [4]: 0.33 /100WBC | PLATELET COUNT [4]: 1295.33 x10E3/uL | ALANINE AMINOTRANSFERASE [4]: 46 u/L | ALBUMIN [4]: 3.83 G/DL | ALKALINE PHOSPHATASE [4]: 370 u/L | ASPARTATE AMINOTRANSFERASE [4]: 60 u/L | BLOOD UREA NITROGEN [4]: 16.33 mg/dL | CARBON DIOXIDE [4]: 26 mmol/L | CHLORIDE [4]: 105 MEQ/L | CHOLESTEROL [4]: 28.33 mg/dL | CREATINE PHOSPHOKINASE [4]: 184.33 u/L | CREATININE [4]: 0.2 mg/dL | GLUCOSE [4]: 158.33 mg/dL | LACTATE DEHYDROGENASE [4]: 186.67 u/L | LIPASE [4]: 7.67 u/L | PHOSPHORUS [4]: 12.33 mg/dL | POTASSIUM [4]: 6.29 MEQ/L | SODIUM [4]: 149.6 MEQ/L | TOTAL BILIRUBIN [4]: 0.3 mg/dL | TOTAL PROTEIN [4]: 6.03 G/DL | URIC ACID [4]: 1.5 mg/dL
